{"source": "patent US20240091254A1", "about": "“WNT AGONISTS FOR PREVENTION OF CANCER” (ACADEMISH MEDISCH CENTRUM, priority 2021, published 2024)", "key": {"WT organoids": {"test_system": "WT organoids", "assay": "Murine WT intestinal organoids incubated with conditioned medium or recombinant Wnt antagonists (expansion, clonogenicity)", "assay_type": "cell-based, mouse", "details": "WT organoids, Apc-/- CM, 5 mM LiCl", "procedure": "Murine intestinal crypts were isolated from Lgr5-EGFP-IRES-Cre^ERT2, Lgr5-EGFP-IRES-Cre^ERT2;Ape/or Villin-Cre^ERT2;Apc^fl/fl mice as described by Sato et al.^35. In short, intestines were removed from the mouse and washed thoroughly with ice-cold PBS. Next, the intestine was opened longitudinally and the villi were gently scraped off by a glass cover slide. The intestine was cut into pieces of 5×5 mm and incubated in 2 mM EDTA solution for 30 min. at 4° C. After removal of the EDTA, the crypts were resuspended in ice-cold 1% FCS in PBS by vigorously shaking the tube and passing the supernatant through a 70 µm strainer. Isolated crypts were resuspended in Matrigel® (Corning) and seeded in pre-heated 24-well plates, supplemented with basal organoid medium consisting of advanced DMEM/F12 medium (Gibco) containing 100× N2 and 50× B27 supplements, 100× Glutamax, 5 mM HEPES, 1 mM N-acetyl-L-cysteine (Sigma), and 100× antibiotic/antimycotic (all Gibco). The basal organoid medium was freshly supplemented with the following growth factors: mouse EGF 50 ng/ml (TEBU-BIO), R-spondin (conditioned medium), Noggin (conditioned medium). The first two days after crypt isolation CHIR99021 (Axon Medchem) and ROCK inhibitor (Sigma) was added to the medium. Ctnnb1^S organoids expressing a constitutive active variant of β-catenin were generated as described by Adam et al.^36. For in vitro recombination of loxP flanked alleles, 1 μM 40H-Tamoxifen (Sigma) was added to the medium. Recombination of the Apc gene was validated by digital droplet PCR (Bio-Rad) using EvaGreen® Supermix (Bio-Rad). Lgr5-EGFP-IRES-Cre^ERT2 organoids, referred to as wild type (WT) organoids, were stably transduced with a red fluorescent mCherry construct (LeGO-C2, Addgene #27399). The in vitro recombined Lgr5-EGFP-IRES-Cre^ERT2;Apc^fl/fl, referred to as Apc^−/−, were stably transduced with a green fluorescent Venus construct (LeGO-V2, Addgene #27340). During competition assays, organoids were plated in equal numbers in 24-well plates and full wells were scanned over time by the EVOS FL Cell Imaging System (Thermo Scientific). Conditioned medium (CM) was taken from 2-3 day old WT or Apc^−/− organoid cultures and freshly supplemented with growth factors R-spondin, Noggin and mEGF. During the competition assays the medium (normal and conditioned) was replaced every other day to minimize effects of medium depletion. To assess the effect of medium depletion, CM was 10× concentrated using 10 kDa Amicon® centrifugal filters (Millipore) and added to fresh ENR medium as 1:10. […] Recombinant proteins NOTUM (2 μg/mL, R&D, 9150-NO-050), WIF1 (5 μg/mL, R&D, 135-WF-050) and DKK2 (1 μg/mL, R&D, 2435-DKB-010) were freshly added to the culture medium, medium was refreshed every other day."}, "[1]": {"test_system": "Wnt pathway (TOP-GFP reporter)", "assay": "TOP-GFP Wnt reporter assay in MEFs", "assay_type": "cell-based, mouse", "procedure": "Mouse embryonic fibroblasts (MEFs, ATCC) and HEK293T (ATCC) cells were both cultured in Dulbecco's Modified Eagle's Medium (DMEM) supplemented with 10% fetal calf serum (FCS), 1% Glutamine, and antibiotic penicillin and streptomycin. Cells were maintained at 37° C. in humidified air containing 5% CO2. All cell lines were routinely checked for mycoplasm contamination, no cell line authentication was performed.\nMouse embryonic fibroblasts (MEFs) were cultured in Dulbecco's Modified Eagle's Medium (DMEM) supplemented with 10% fetal calf serum (FCS), 1% Glutamine, and antibiotic penicillin and streptomycin. MEFs were stably transduced with Wnt reporter TOP-GFP (Addgene plasmid #35491). For TOP-GFP assays, cells were stimulated with Wnt3A conditioned medium for 24 hours after which GFP positivity was measured by flow cytometry."}}}
{"smiles": "[Cl-].[Li+]", "note": "[LiCl, lithium chloride]", "values": [{"measurement": "Resistance to Apc-/- CM induced reduction in proliferation and clonogenicity", "setting": "WT organoids", "result": "resistant to the Apc^−/− CM induced reduction in proliferation and clonogenicity"}, {"measurement": "Effect on Apc-/- CM reduction of Wnt3a mediated Wnt activation (TOP-GFP)", "setting": "[1]; MEFs, TOP-GFP reporter, 5 mM LiCl", "result": "completely abrogated this effect"}, {"measurement": "Wnt signalling activation in Wnt reporter assay, Li2CO3 compared with LiCl", "setting": "[1]; comparable concentrations (5 or 10 mM)", "result": "activated the same amount of Wnt signalling"}]}
